This note sets out measurements from patent US8808769B2, “Method for extraction of fractions containing pharmacologically active ingredients with less cytotoxicity from one or more plants” (Bioved Pharmaceuticals, Inc., priority 2009, dated 2014).

The assay relates to Pseudomonas aeruginosa (ATCC 9027). Put plainly: agar well diffusion assay (antimicrobial activity). It counts as cell-based. Conditions: ATCC9027, 100 μl of 100 mg/ml solution per well, 37° C., 24 hours of incubation, mean of three readings, read-out: zone of inhibition (diameter). The text has this:
Pseudomonas aeruginosa (ATCC 9027) strain was used as test organisms. The culture media, Nutrient Agar (NA), Nutrient Broth (NB) and Czapek Yeast Extract Agar (CYA) used for the growth of microorganisms, were purchased from Hi-Media. All other chemicals, including organic solvents used for the extraction of the plant metabolites, were of analytical grade.
The AP Extract 2, SX Extract 2, OS Extract 2, AP Extract 1, SX Extract 1 and OS Extract 1 were separately dissolved in 100% aqueous dimethylsulfoxide (DMSO) to obtain a final concentration of 100 mg/ml for each extract. 100 mg/ml solution of Chloramphenicol was prepared and used as a Positive control. Antimicrobial activity of the above mentioned extracts was determined, using the agar well diffusion assay method (Perez et al., 1990). Approximately 20 ml of molten and cooled media (NA and CYA) were poured in sterilized Petri dishes. The plates were left overnight at room temperature to check for any contamination to appear. The test organism was grown in nutrient broth for 24 hours. […]
Agar wells of 5 mm diameter were prepared with the help of a sterilized stainless steel cork borer. […] The antimicrobial activity of the extracts was taken on the basis of diameter of zone of inhibition, which was measured at cross-angles after 24 hours of incubation and the mean of three readings for each extract.
A general note: A growth-free zone around the sample is the usual read-out of agar diffusion tests.

The structures appear in SMILES notation.

Regarding `O=C(N[C@H](CO)[C@H](O)c1ccc([N+](=O)[O-])cc1)C(Cl)Cl` [positive standard, Chloramphenicol], the zone of inhibition at 100000 µg/mL was found to be 40 mm.

As usually defined, the zone of inhibition is the extent of the growth-free halo in a diffusion test.
